Results published in patent US9580330B2, “Anhydrous, amorphous and porous magnesium carbonates and methods of production thereof” (DISRUPTIVE MATERIALS AB, priority 2012, dated 2017).

Assays:
[1] = Drug release measurement, USP-2 dissolution bath; assay type: physicochemical; conditions: phosphate buffer pH 6.8, 37° C., 50 rpm, 17.5 mg ibuprofen in 500 mL
Procedure: Drug Release Measurement: The release of ibuprofen was carried out in a USP-2 dissolution bath (Sotax AT7 Smart, Sotax AG, Switzerland) equipped with 1000 mL vessels (37° C., 50 rpm). Samples with a total drug content of 17.5 mg ibuprofen were placed in vessels containing 500 mL phosphate buffer (pH=6.8). […] Aliquots of 3 mL were withdrawn from each vessel at regular intervals for 125 min and the drug concentration in the liquid samples was analysed using UV/vis absorbance spectroscopy (1650PC, Shimadzu Corporation, Kyoto, Japan).

[2] = Thermal gravimetric analysis (TGA) of Example 28 samples; assay type: physicochemical; conditions: air flow, 3 K min^−1
Procedure: Thermal gravimetric analysis (TGA) was carried out on a Mettler Toledo, model TGA/SDTA851e, under an air flow in an inert alumina cup. The samples were heated from room temperature to 600° C. with a heating rate of 3 K min^−1.

- time until about 50% of the ibuprofen is dissolved [1]: about 30 minutes
- decomposition temperature of ibuprofen [2]: about 200 °C
Compound: CC(C)Cc1ccc(C(C)C(=O)O)cc1 (centres unmarked) [free ibuprofen, ibuprofen]
